Measured values from patent EP0823908B1, “PYRIDO[2,3-d]PYRIMIDINES FOR INHIBITING PROTEIN TYROSINE KINASE MEDIATED [sequence] PROLIFERATION” (Warner-Lambert Company LLC, priority 1995, dated 1996).

Key:
[1] = molecular target: T1, mouse PDGF-β receptor tyrosine kinase (Mus musculus, UniProt P05622); test: PDGF receptor tyrosine kinase assay (32P incorporation into glutamate-tyrosine co-polymer); assay type: biochemical; details: read-out: PDGFr-TK IC50
T1 construct: amplify a fragment of DNA that codes for the intracellular tyrosine kinase domain; made in house; host or cells: SF9 insect cells (baculovirus)
T1 sequence (P05622 599-961 limits assumed): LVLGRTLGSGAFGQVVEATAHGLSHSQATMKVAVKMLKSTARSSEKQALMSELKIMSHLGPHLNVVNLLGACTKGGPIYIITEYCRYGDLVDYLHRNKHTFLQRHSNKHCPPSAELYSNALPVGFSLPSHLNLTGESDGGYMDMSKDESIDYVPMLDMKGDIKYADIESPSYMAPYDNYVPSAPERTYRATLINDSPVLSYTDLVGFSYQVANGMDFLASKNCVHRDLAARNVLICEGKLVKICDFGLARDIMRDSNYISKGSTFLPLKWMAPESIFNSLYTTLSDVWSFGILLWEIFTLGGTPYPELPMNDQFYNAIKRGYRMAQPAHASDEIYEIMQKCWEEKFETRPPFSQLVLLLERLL
How it was run: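 32P transfer from γ32P-ATP (50 µM ATP) to poly(Glu,Tyr) 4:1 was measured over 10 min at 25°C and counted after TCA precipitation onto filters, minus the no-enzyme background. Enzyme was baculovirus/SF9 lysate of the kinase domain, preincubated 10 min with inhibitor in Hepes pH 7.0, MnCl2, vanadate.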

[2] = molecular target: T2, Human EGF receptor tyrosine kinase (Homo sapiens, UniProt P00533); test: EGF receptor tyrosine kinase enzyme assay (substrate peptide phosphorylation); assay type: biochemical; details: read-out: EGF-FL IC50
T2 construct: Human EGF receptor tyrosine kinase was isolated from A431 epidermoid carcinoma cells; endogenous in cells; host or cells: A431 epidermoid carcinoma cells
T2 sequence (P00533 25-1210): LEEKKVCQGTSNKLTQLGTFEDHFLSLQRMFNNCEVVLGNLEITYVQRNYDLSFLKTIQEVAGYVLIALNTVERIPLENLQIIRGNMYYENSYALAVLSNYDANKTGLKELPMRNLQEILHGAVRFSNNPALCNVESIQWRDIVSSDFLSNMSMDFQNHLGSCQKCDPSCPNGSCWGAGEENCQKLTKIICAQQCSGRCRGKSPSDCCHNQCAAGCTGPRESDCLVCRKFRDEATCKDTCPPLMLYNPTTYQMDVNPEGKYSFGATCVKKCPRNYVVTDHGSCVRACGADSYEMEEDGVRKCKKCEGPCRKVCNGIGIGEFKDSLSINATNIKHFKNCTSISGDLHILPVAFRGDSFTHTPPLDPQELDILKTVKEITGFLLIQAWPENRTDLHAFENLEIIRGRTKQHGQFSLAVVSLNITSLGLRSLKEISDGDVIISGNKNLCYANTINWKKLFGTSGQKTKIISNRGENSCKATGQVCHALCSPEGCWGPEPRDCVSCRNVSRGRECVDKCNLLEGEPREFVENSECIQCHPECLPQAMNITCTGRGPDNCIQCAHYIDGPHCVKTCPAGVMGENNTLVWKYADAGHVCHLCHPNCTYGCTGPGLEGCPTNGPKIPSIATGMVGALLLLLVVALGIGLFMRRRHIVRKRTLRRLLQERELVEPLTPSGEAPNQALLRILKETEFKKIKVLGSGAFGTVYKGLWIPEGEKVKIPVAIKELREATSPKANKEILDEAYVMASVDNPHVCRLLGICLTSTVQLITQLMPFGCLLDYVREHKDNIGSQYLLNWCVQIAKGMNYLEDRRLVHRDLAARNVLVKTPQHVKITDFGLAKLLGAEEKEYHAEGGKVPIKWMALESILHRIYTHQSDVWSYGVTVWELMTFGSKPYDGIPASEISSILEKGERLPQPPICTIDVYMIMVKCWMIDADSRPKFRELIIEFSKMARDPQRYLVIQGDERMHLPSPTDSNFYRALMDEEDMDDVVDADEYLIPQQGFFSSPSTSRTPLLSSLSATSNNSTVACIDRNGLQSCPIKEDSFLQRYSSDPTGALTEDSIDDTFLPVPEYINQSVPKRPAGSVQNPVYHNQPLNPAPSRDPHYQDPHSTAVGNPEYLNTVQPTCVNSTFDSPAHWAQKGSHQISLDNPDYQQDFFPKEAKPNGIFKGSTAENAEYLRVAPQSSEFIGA

HT-29 = test: Soft agar colony formation, human colon adenocarcinoma cells; assay type: cell-based; details: HT-29, 336 h, read-out: Inhibition of Human Colon Adenocarcinoma IC50, HT-29
Protocol: (§1) Three such human cell lines were identified as HCT-8, SW-620, and HT-29. In a typical assay, the cells are suspended in 0.3% soft agar containing an invention compound at various concentration levels, and are plated into six-well plates, each plate containing a 1% agar plug. The cell plates are incubated at 37°C in a humidified carbon dioxide (5%) incubator, generally for 2 weeks. At the end of the incubation period, colonies of cells are detected by staining the wells with 1 mg/mL of p-iodonitrotetrazolium violet. The cells are counted on an optical colony counter. […] TABLE III. Inhibition of Human Colon Adenocarcinoma IC50 (µM)

HCT-8 = test: as above; assay type: cell-based; details: HCT-8, 336 h, read-out: Inhibition of Human Colon Adenocarcinoma IC50, HCT-8
Protocol: as §1

SW-620 = test: as above; assay type: cell-based; details: SW-620, 336 h, read-out: Inhibition of Human Colon Adenocarcinoma IC50, SW-620
Protocol: as §1

transplanted tumors = test: Transplanted tumor assay; assay type: in vivo; details: F1 hybrid mice; compound generally by infusion by tail tether
Protocol: F1 hybrid mice were used in the assay. The mice receive ascites fluid or dilutions of tumor brei on Day 0. A sample of the inocula is incubated in thioglycolate media as a check for gross contamination of the tumor material. After all test animals are inoculated with tumors, they are randomized for the assay. Control animals receive vehicle, while treated animals receive an invention compound dissolved in the vehicle, generally by infusion by tail tether. All animals are monitored daily for acute toxicity and other clinical signs. Survival is checked daily for the control group and treated group. The assay generally is continued for 60 days, at which time all surviving animals are euthanized.

**Q.** How did the IC50 [1] turn out when `Cn1c(=O)c(-c2c(Cl)cccc2Cl)cc2cnc(Nc3ccccc3)nc21` [Example 54, 6-(2,6-Dichlorophenyl)-8-methyl-2-phenylamino-8H-pyrido[2,3-d]pyrimidin-7-one] was run?
**A.** 231 nM

**Q.** What about the IC50 [2] of the same molecule?
**A.** 78 nM

**Q.** And the IC50 (HT-29)?
**A.** 490 nM

**Q.** And the IC50 (HCT-8)?
**A.** 520 nM

**Q.** And the IC50 (SW-620)?
**A.** 140 nM

**Q.** And the “life span of animals infected with transplanted tumors” value (transplanted tumors)?
**A.** increased the life span
